Patent US9085551B2, “Solid forms of 3-(4-nitro-1-oxisoindolin-2-yl)piperidine-2,6-dione” (Celgene Corporation, priority 2012, dated 2015)
Entries after “also recorded” stand apart in the source; their conditions may differ.

Legend:
Assay type in all cases: physicochemical
[1] = Equilibration (slurry) of solid forms in batch solvents, solid analyzed by XRPD
Experimental: Equilibration studies using single, binary and ternary combinations of batch solvents (water, acetone, and acetonitrile) were investigated to mimic key steps in manufacturing 3-(4-nitro-1-oxoisoindolin-2-yl)piperidine-2,6-dione. Materials of 3-(4-nitro-1-oxoisoindolin-2-yl)piperidine-2,6-dione and solvent or solvent mixtures were added to a glass vial to achieve free-flowing slurry and allowed to equilibrate at the specified temperature. […] The solid phase was then dried under air and analyzed by XRPD.
A total of four batches of 3-(4-nitro-1-oxoisoindolin-2-yl)piperidine-2,6-dione were characterized by XRPD, DSC, TGA, ATR-FTIR and DVS, as described in section 6.5. The solid form represented by the batch 1 was designated as Form A; the solid form represented by the batch 4 was designated as Form B; the batches 2 and 3 were determined to be mixtures of Forms A and B, with Form B dominating the patterns. The equilibration experiments were performed using batches 2, 3 and 4, and the results are described in Table 2.
(§1) All of the solid samples generated in the polymorph screen were analyzed by XRPD. XRPD analysis was conducted on a PANalytical Empyrean or a Thermo ARL X'TRA X-ray powder diffractometer using Cu Kα radiation at 1.54 Å.

[2] = Dynamic Vapor Sorption (DVS) hygroscopicity; settings: for total mass change between 0% and 90% relative humidity: DVS at 25° C., 0% to 90% RH; for hygroscopicity: DVS, 0% to 90% relative humidity; for XRPD pattern after adsorption/desorption cycles: after DVS
Experimental: Hygroscopicity was determined on a Surface Measurement Systems DVS. Typically a sample size of 5-30 mg was loaded into the DVS instrument sample pan and the sample was analyzed on a DVS automated sorption analyzer at 25° C. The relative humidity was increased from 0% to 90% RH at 10% RH step. The relative humidity was then decreased in a similar manner to accomplish a full adsorption/desorption cycle.

[3] = Additional form conversion experiments (heating, slurry), XRPD
Experimental: as §1

| conversion to other forms ([1]; form conversion studies) | relative thermodynamic stability of the form ([1]; form conversion studies) | total mass change between 0% and 90% relative humidity [2] [%] | hygroscopicity [2] | XRPD pattern after adsorption/desorption cycles [2] | Form by XRPD ([1]; equilibration in acetone, ambient, 8 days) | Form by XRPD ([1]; equilibration in acetone/water (1:1), ambient, 8 days) | Form by XRPD ([1]; equilibration in acetonitrile, 80° C. (or reflux), 6 hours) | Form by XRPD ([1]; equilibration in acetonitrile/water (1:1), ambient, 8 days) | Form by XRPD ([1]; equilibration in acetonitrile/water (2:1), 60° C., 6 hours) | Form by XRPD ([1]; equilibration in acetonitrile/water/acetone (1:1:1), ambient, 8 days) | Form by XRPD ([1]; equilibration in water, ambient, 8 days) | form conversion ([3]; ambient temperature, NMP/acetone/water (1:2.5:2.5), time not stated) | XRPD Result ([3]; slurry in NMP/Acetone/water at ambient for 5 days) | XRPD Result ([3]; slurry in NMP/Acetone/water at ambient for 10 days) | SMILES | XRPD Result ([3]; heated to 220° C. for 4 hours) |
| --- | --- | --- | --- | --- | --- | --- | --- | --- | --- | --- | --- | --- | --- | --- | --- | --- |
| no conversion | most thermodynamically stable form | 0.42 | not hygroscopic | no change |  |  |  |  |  |  |  |  |  |  | O=C1CCC(N2Cc3c(cccc3[N+](=O)[O-])C2=O)C(=O)N1 (single isomer, unassigned) [Form A, 3-(4-nitro-1-oxoisoindolin-2-yl)piperidine-2,6-dione] |  |
|  |  | 0.39 | not hygroscopic | no change | converts to Form A | converts to Form A | converts to Form A | converts to Form A | converts to Form A | converts to Form A | converts to Form A |  |  |  | O=C1CCC(N2Cc3c(cccc3[N+](=O)[O-])C2=O)C(=O)N1 (single isomer, unassigned) [Form B, 3-(4-nitro-1-oxoisoindolin-2-yl)piperidine-2,6-dione] | converts to Form A |
|  |  | 0.43 | not hygroscopic | no change |  |  |  |  |  |  |  | converts to Form A | Form A + C | Form A + C | O=C1CCC(N2Cc3c(cccc3[N+](=O)[O-])C2=O)C(=O)N1 (single isomer, unassigned) [Form C, 3-(4-nitro-1-oxoisoindolin-2-yl)piperidine-2,6-dione] | partially converts to Form A; also recorded: Form A + C |
